The source made the active and inactive calls.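 The calls were made as follows: active = mean IC50 for reducing PEG3 promoter reporter signal at or below a set limit, with IC50 above the limit in both counter screens; inactive = the rest, including counter screen hits.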
Key:
PEG-3 [1] = biological target: PEG-3 (UniProt Q6IN02); assay: Peg3 promoter luciferase inhibitors, potency, dose response, cell-based, HeLa, CREF/GAPDH counter-screen panel (AID 624167); conditions: HeLa PEG-Prom luciferase reporter, overnight, CREF/GAPDH counter-screens, mean of runs
PEG-3 [2] = assay: as above; conditions: HeLa PEG-Prom luciferase reporter, overnight, CREF/GAPDH counter-screens
[3] = run 1, dose range 1, individual replicate IC50 per panel
[4] = run 2, dose range 1, individual replicate IC50 per panel

Chain of PEG-3 (UniProt Q6IN02) (Q6IN02 whole entry, looked up): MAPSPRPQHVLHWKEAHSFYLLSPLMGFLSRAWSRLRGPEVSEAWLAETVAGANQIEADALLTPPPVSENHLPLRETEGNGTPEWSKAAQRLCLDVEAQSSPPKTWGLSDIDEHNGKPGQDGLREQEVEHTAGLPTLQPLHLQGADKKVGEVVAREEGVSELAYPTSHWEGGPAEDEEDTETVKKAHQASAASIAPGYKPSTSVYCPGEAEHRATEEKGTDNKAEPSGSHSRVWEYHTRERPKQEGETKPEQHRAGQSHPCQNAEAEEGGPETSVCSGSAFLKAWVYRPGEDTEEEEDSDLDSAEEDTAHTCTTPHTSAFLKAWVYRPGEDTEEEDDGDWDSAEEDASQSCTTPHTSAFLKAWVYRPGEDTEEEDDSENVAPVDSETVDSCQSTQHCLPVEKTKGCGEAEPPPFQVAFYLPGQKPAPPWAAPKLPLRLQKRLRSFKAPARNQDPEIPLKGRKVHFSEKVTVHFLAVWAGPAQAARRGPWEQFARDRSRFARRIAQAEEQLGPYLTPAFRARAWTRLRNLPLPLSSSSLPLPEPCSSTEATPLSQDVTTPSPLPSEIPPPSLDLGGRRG

Row | Compound | IC50 (PEG-3 [1]) | IC50 (PEG-3 [2]; [3]) [µM] | IC50 (PEG-3 [2]; [4]) [µM]
1 | COc1ccc(-c2nc(NC(=O)c3n[nH]c(=O)c4ccccc34)sc2C)cc1 | inactive | 0.904 | > 100
2 | COc1ccc(OC)c(Cc2cnc3nc(N)nc(N)c3c2C)c1 | inactive | 48.7 | 1.36
3 | Cn1c(=O)c(C(=O)CCl)c(N)n(Cc2ccccc2)c1=O | inactive | 28.6 | 13.2
4 | O=C(Nc1ccc(CN2CCCCC2)cc1)Nc1ccc(Br)cc1Cl | inactive | 20.4 | 19.8
5 | O=C(Nc1ccccc1N1CCOCC1)c1cc(-c2ccncc2)nc2ccccc12 | inactive | 33 | 78.3
6 | COc1cccc(-c2nnc3n2N=C(C(C)(C)C)CS3)c1 | 17.8 µM | 14.1 | 21.5
7 | CC(=O)OC(C)(C)/C=C/C(=O)C(C)(O)C1[C@H](O)C[C@@]2(C)C3CC=C4C(CC[C@@H](O)C4(C)C)[C@]3(CO)C(=O)C[C@]12C (some centres undefined) | inactive | 47 | < 0.2
8 | Cc1cc(C)c2nc(N(CCCN(C)C)C(=O)c3ccc(S(=O)(=O)N4CCCCCC4)cc3)sc2c1 | 20 µM | 24.3 | 15.6
9 | O=C1NC(=O)N(Cc2ccccc2)C(=O)/C1=C\C=C\c1ccco1 | 13.5 µM | 15.1 | 12
10 | CN1CCC(N(C)S(=O)(=O)c2ccc(NC(=O)COc3ccc(Br)cc3Cl)cc2)CC1 | 18.7 µM | 23 | 14.5
11 | O=C(CCCN1C(=O)/C(=C/c2ccccc2Cl)SC1=S)NNC(=O)c1ccccc1Cl | inactive | 26.4 | 22
12 | CCCc1nc(SCC(=O)N2CCCc3ccccc32)c2c(=O)n(C)c(=O)n(C)c2n1 | inactive | 49 | 38.2
13 | Cc1[nH]c2ccc(OC(F)(F)F)cc2c1CCNCc1cccc([N+](=O)[O-])c1 | inactive | 25.1 | > 100
14 | O=C(c1ccco1)N1CCN(c2ncnc3c2[nH]c2ccc(Br)cc23)CC1 | inactive | 24.9 | 24.1
15 | O=C(CCCN1C(=O)/C(=C/c2cccc(Br)c2)SC1=S)Nc1cccnc1 | 13.6 µM | 15.1 | 12.1
16 | COC(=O)C1=C(C)N(Cc2ccccc2)C(=NCCc2c[nH]c3ccccc23)N[C@H]1c1cccc(C(F)(F)F)c1 | inactive | 17.8 | 23
17 | Cc1ccc(-c2nc(C(Cl)Cl)c3ccccc3n2)cc1 | inactive | > 100 | 9.67

Row | Compound | IC50 (PEG-3 [1]) | IC50 (PEG-3 [2]; [3]) [µM] | IC50 (PEG-3 [2]; [4]) [µM]
18 | NCCc1c(-c2ccccc2)n(-c2ccccc2)c2ccccc12 | 12.9 µM | 17.4 | 8.4
19 | CC(C)(C)c1ccc(/C=N/Nc2ccc(C(=O)O)cc2)cc1 | inactive | 36.7 | 28
20 | Cc1cc(C)c2sc(N(CCCN(C)C)C(=O)c3ccc(S(=O)(=O)N(C)Cc4ccccc4)cc3)nc2c1 | 18.9 µM | 20.3 | 17.4
21 | O=S(=O)(N[C@H]1C[C@@H](NS(=O)(=O)OCC(Cl)(Cl)Cl)C2CCCCC21)OCC(Cl)(Cl)Cl (some centres undefined) | 12.5 µM | 15.1 | 9.83
22 | CCn1cc(C(=O)NCCC(C)C)c(=O)c2cc(F)c(N3CCN(C(=O)c4ccco4)CC3)cc21 | inactive | 37.8 | > 100
23 | C[C@@H](C(=O)Nc1ccc2c(c1)OCCO2)n1c(=O)[nH]c2ccccc2c1=O | inactive | 11.8 | > 100
24 | CN(C)CCNC(=O)c1sc2nc(-c3ccccc3)cc(C(F)(F)F)c2c1N | inactive | 20.5 | 19.8
25 | Cc1cc(C(=O)COC(=O)c2ccccc2Br)c(C)n1CC1CCCO1 (centres undefined) | inactive | 3.07 | 98.5
26 | COC(=O)CSC1=NS(=O)(=O)c2ccccc21 | inactive | > 100 | 33.5
27 | COc1cccc(Nc2nc(C(N)Cc3ccccc3)cs2)n1 (centres undefined) | 18.2 µM | 20.4 | 15.9
28 | COc1ccc2sc(N(CCCN(C)C)C(=O)c3ccc(S(=O)(=O)N4CCCc5ccccc54)cc3)nc2c1 | inactive | 20.7 | 21.8
29 | Cc1ccc(CC2(OCCN(C)C)CCC(C(C)(C)C)CC2)cc1 (centres undefined) | 16.8 µM | 19.1 | 14.6
30 | COc1cccc(NC(=O)CN(C)C(=O)c2cc(-c3ccc(F)cc3)nc3ccccc23)c1 | inactive | 25.8 | 44.6
31 | CCN(CC)CCOc1ccc(/C(=C(/Cl)c2ccccc2)c2ccccc2)cc1 | 17 µM | 22.4 | 11.6
32 | c1cncc(-c2nc(NCC3COc4ccccc4O3)c3ccccc3n2)c1 (centres undefined) | inactive | 20.1 | 38.6
33 | CC(C)N1CCc2c(sc(NC(=O)c3cc4cc([N+](=O)[O-])ccc4s3)c2C(N)=O)C1 | inactive | 22.5 | 17.6

— PubChem BioAssay AID624167 (Sanford-Burnham Center for Chemical Genomics, 2012)
